Experiments:
[1] = xn = mol fraction of the nth substance listed; conditions: 328.15 K, Liquid; for speed of sound: 100 kPa, Frequency=3 MHz, Sing-around technique in a fixed-path interferometer; for mass density: 101.3 kPa, Vibrating tube method
[2] = refractive index (Na D-line) (dimensionless); xn = mol fraction of the nth substance listed; conditions: 100 kPa, Liquid, Standard Abbe refractometry

CCCOCCO [2-propoxyethanol] + CCOS(=O)(=O)[O-].CCn1cc[n+](C)c1
[1]
Conditions	mass density [kg/m3]	speed of sound [m/s]
x2 = 0	881.49	1195.8
x2 = 0.0496	910.28	1221.5
x2 = 0.0901	932.1	1241.4
x2 = 0.1345	954.51	1262.4
x2 = 0.1738	973.08	1280.5
x2 = 0.2568	1009.08	1318.1
x2 = 0.3477	1044.05	1358.5
x2 = 0.4406	1075.88	1399.3
x2 = 0.5477	1108.69	1445.6
x2 = 0.6478	1136.34	1487.8
x2 = 0.7729	1167.58	1537.5
x2 = 0.8263	1179.94	1557
x2 = 0.8757	1190.88	1573.9
x2 = 0.9346	1203.26	1591.9

refractive index, [2]
Conditions	298.15 K	308.15 K	318.15 K	328.15 K
x2 = 0	1.41255	1.40814	1.40355	1.39908
x2 = 0.0496	1.41807	1.41391	1.40953	1.4053
x2 = 0.0901	1.42234	1.41835	1.41413	1.41007
x2 = 0.1345	1.42679	1.42296	1.41891	1.41501
x2 = 0.1738	1.43052	1.42682	1.4229	1.41912
x2 = 0.2568	1.43781	1.43433	1.43065	1.42711
x2 = 0.3477	1.44491	1.44162	1.43817	1.43483
x2 = 0.4406	1.45131	1.44817	1.44492	1.44175
x2 = 0.5477	1.45778	1.45477	1.45172	1.4487
x2 = 0.6478	1.46309	1.4602	1.45729	1.45439
x2 = 0.7729	1.46902	1.46625	1.46348	1.46071
x2 = 0.8263	1.4714	1.46868	1.46595	1.46322
x2 = 0.8757	1.47357	1.47089	1.46818	1.46549
x2 = 0.9346	1.47615	1.4735	1.47081	1.46815
